Test results: ChEMBL document CHEMBL1781952, “Hippolides A-H, acyclic manoalide derivatives from the marine sponge Hippospongia lachne” (J Nat Prod, 2011)

Assays:
[1] = biological target: Protein kinase C gamma type (Homo sapiens, UniProt P05129); experiment: Binding affinity at PKCgamma after 1 hr by luminescent kinase assay
A549 = experiment: Cytotoxicity against human A549 cells after 48 hrs by MTT assay; type: functional, cell-based; conditions: A549, 48 h
HCT-116 = experiment: Cytotoxicity against human HCT116 cells after 48 hrs by MTT assay; type: functional, cell-based; conditions: HCT-116, 48 h
HeLa = experiment: Cytotoxicity against human HeLa cells after 48 hrs by MTT assay; type: functional, cell-based
[2] = biological target: T1, Tyrosine-protein phosphatase non-receptor type 1 (Homo sapiens, UniProt P18031); experiment: Inhibition of recombinant PTP1B catalytic domain using pNPP as substrate assessed as pNP release
T1 sequence (P18031 whole entry): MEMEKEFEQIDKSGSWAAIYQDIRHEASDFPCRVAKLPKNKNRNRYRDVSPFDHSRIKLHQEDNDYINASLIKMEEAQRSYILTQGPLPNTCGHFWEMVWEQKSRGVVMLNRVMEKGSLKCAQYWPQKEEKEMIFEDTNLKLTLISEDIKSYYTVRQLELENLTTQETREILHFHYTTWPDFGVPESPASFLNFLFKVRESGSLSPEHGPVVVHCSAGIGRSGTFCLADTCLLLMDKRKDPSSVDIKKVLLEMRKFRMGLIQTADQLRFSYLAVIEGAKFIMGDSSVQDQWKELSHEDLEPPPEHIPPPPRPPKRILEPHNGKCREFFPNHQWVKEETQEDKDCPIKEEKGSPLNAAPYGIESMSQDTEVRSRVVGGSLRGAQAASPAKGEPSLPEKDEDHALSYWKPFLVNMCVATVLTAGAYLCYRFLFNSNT

[3] = biological target: Protein kinase C alpha type (Homo sapiens, UniProt P17252); experiment: Binding affinity at PKCalpha after 1 hr by luminescent kinase assay

| IC50 [1] [µM] | IC50 [2] [µM] | IC50 [3] [µM] | Structure (SMILES) | IC50 (A549) [µM] | IC50 (HCT-116) [µM] | IC50 (HeLa) [µM] |
| --- | --- | --- | --- | --- | --- | --- |
| 62 | 23.8 | – | CC(C)=CCC/C(C)=C/CC/C(C)=C/CCC1=CC[C@H]([C@@H]2CC(=O)NC2=O)O[C@@H]1O [HIPPOLIDE A] | 0.0522 | 9.78 | 0.048 |
| – | – | 40.3 | CC(C)=CCC/C(C)=C/CC/C(C)=C/CC/C(=C\C[C@H]1OC(=O)C=C1CO)CO [HIPPOLIDE E] | – | – | – |
| – | 39.7 | – | CO[C@H]1O[C@@H]([C@@H]2CC(=O)NC2=O)CC=C1CC/C=C(\C)CC/C=C(\C)CCC=C(C)C [HIPPOLIDE B] | – | 35.1 | – |
